# Measured values reported in patent US8039603B2, “Nucleic acid and corresponding protein entitled 121P1F1 useful in treatment and detection of cancer” (Agensys, Inc., priority 2001, dated 2011).
# Test system: LAPC-4 cells
# Test: Androgen regulation of 121P1F1 in vitro (Northern blot)
# Format: cell-based, human
# Settings: LAPC-4 cells in charcoal-stripped medium
# Experimental: FIG. 22. Androgen regulation of 121P1F1 in vitro. […] cells were grown in charcoal-stripped medium and stimulated with the synthetic androgen mibolerone, for either 14 or 24 hours. Northern blot was performed with 10 μg of total RNA for each sample, and probed with the 121P1F1 SSH fragment. A picture of the ethidium-bromide staining of the RNA gel is also presented (lowest panel). Hybridization of the same northern blot with the androgen-dependent gene TMPRSS2 confirms the quality of the androgen deprivation.
# Since 121P1F1 was derived from a […] LAPC-9 AD (28 days post-castration) subtraction, an assay was performed for androgen regulation of 121P1F1 (FIG. 22). LAPC-4 cells were grown in charcoal-stripped medium and stimulated with the synthetic androgen mibolerone, for either 14 or 24 hours. It was shown that the expression of 121P1F1 went down in absence of normal serum, and is modulated in presence of mibolerone, 24 hours after stimulation. The experimental samples were confirmed by testing for the expression of the androgen-regulated prostate cancer gene TMPRSS2.
structure (smiles),measurement,setting,value
C[C@@H]1CC2=CC(=O)CC[C@@H]2[C@H]2CC[C@@]3(C)[C@@H](CC[C@]3(C)O)[C@@H]21 [mibolerone],expression of 121P1F1,24 hours after stimulation,modulated
same,TMPRSS2 expression,at 14 and 24 hours,induced
